Experimental data: ChEMBL document CHEMBL2046341, “α-glucosidase inhibitors from Brickellia cavanillesii” (J Nat Prod, 2012)

Key:
[1] = Inhibition of Saccharomyces cerevisiae alpha-glucosidase using p-nitrophenyl-alpha-D-glucopyranoside as substrate preincubated for 5 mins prior to substrate addition measured after 35 mins by spectrophotocolorimetric assay
[2] = Noncompetitive inhibition of Saccharomyces cerevisiae alpha-glucosidase using p-nitrophenyl-alpha-D-glucopyranoside as substrate by Lineweaver-Burk plot and Dixon plot analysis
[3] = Competitive inhibition of Saccharomyces cerevisiae alpha-glucosidase using p-nitrophenyl-alpha-D-glucopyranoside as substrate by Lineweaver-Burk plot and Dixon plot analysis
[4] = Mixed type inhibition of Saccharomyces cerevisiae alpha-glucosidase using p-nitrophenyl-alpha-D-glucopyranoside as substrate by Lineweaver-Burk plot and Dixon plot analysis

IC50 [1]	Ki [2]	Ki [3]	SMILES	Ki [4]
420 µM	130 µM	–	CC1(C)C=Cc2c(ccc(C(=O)CO)c2O)O1	–
340 µM	–	260 µM	C[C@H]1O[C@H](O[C@H]2[C@H](O)[C@@H](O)[C@@H](O[C@H]3[C@H](O)[C@@H](O)C(O)O[C@@H]3CO)O[C@@H]2CO)[C@H](O)[C@@H](O)[C@@H]1N[C@H]1C=C(CO)[C@@H](O)[C@H](O)[C@H]1O (stereo partly drawn) [ACARBOSE]	–
280 µM	–	–	C=C1C(=O)O[C@@H]2C[C@@H](C)/C=C\C(=O)[C@](C)(O)[C@H](OC(C)=O)[C@@H](OC(=O)/C(C)=C/C)[C@@H]12 [CALEIN C]	410 µM

SMILES	IC50 [1]	Ki [2]	Ki [3]	Ki [4]
COc1cc(-c2oc3cc(O)cc(O)c3c(=O)c2O)ccc1O [ISORHAMNETIN]	160 µM	–	–	1910 µM
